Measured values reported in PubChem BioAssay (NCI).
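Method: 48-hour compound exposure of cells in 96-well plates, five concentrations, linear interpolation of endpoints. TGI denotes the concentration required for complete inhibition of growth.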 Where a SMILES comes first, the peptide text is derived from it. [ ]: non-standard residue; d: D form. The star is where a group is joined. Bn2Val = CC(C)[C@@H](C(=O)*)N(Cc1ccccc1)Cc1ccccc1; NH(4-F-benzyl) = Fc1ccc(CN*)cc1; NMeV = CN[C@H](C(=O)O)C(C)C; dNMeA = CN[C@H](C)C(=O)O

Key:
Test in all cases: inhibition of tumour cell growth, NCI panel, 48 h
786-0 renal = test system: 786-0 renal
A498 renal = test system: A498 renal
A549 NSCLC = test system: A549 NSCLC
ACHN renal = test system: ACHN renal
BT-549 breast = test system: BT-549 breast
CAKI-1 renal = test system: CAKI-1 renal
CCRF-CEM leukemia = test system: CCRF-CEM leukemia
COLO 205 colon = test system: COLO 205 colon
DU-145 prostate = test system: DU-145 prostate
EKVX NSCLC = test system: EKVX NSCLC
HCC-2998 colon = test system: HCC-2998 colon
HCT-116 colon = test system: HCT-116 colon
HCT-15 colon = test system: HCT-15 colon
HL-60(TB) leukemia = test system: HL-60(TB) leukemia
HOP-62 NSCLC = test system: HOP-62 NSCLC
HOP-92 NSCLC = test system: HOP-92 NSCLC
HS 578T breast = test system: HS 578T breast
HT29 colon = test system: HT29 colon
IGROV1 ovarian = test system: IGROV1 ovarian
K-562 leukemia = test system: K-562 leukemia
KM12 colon = test system: KM12 colon
LOX IMVI melanoma = test system: LOX IMVI melanoma
M14 melanoma = test system: M14 melanoma
MALME-3M melanoma = test system: MALME-3M melanoma
MCF7 breast = test system: MCF7 breast
MDA-MB-231 breast = test system: MDA-MB-231 breast
MDA-MB-435 = test system: MDA-MB-435
MDA-N = test system: MDA-N
MOLT-4 leukemia = test system: MOLT-4 leukemia
NCI-H226 lung = test system: NCI-H226 lung
NCI-H23 lung = test system: NCI-H23 lung
NCI-H460 lung = test system: NCI-H460 lung
NCI-H522 lung = test system: NCI-H522 lung
NCI/ADR-RES ovarian = test system: NCI/ADR-RES ovarian
OVCAR-3 ovarian = test system: OVCAR-3 ovarian
OVCAR-4 ovarian = test system: OVCAR-4 ovarian
OVCAR-5 ovarian = test system: OVCAR-5 ovarian
OVCAR-8 ovarian = test system: OVCAR-8 ovarian
PC-3 prostate = test system: PC-3 prostate
RPMI-8226 leukemia = test system: RPMI-8226 leukemia
RXF 393 renal = test system: RXF 393 renal
SF-268 CNS = test system: SF-268 CNS
SF-295 CNS = test system: SF-295 CNS
SF-539 CNS = test system: SF-539 CNS
SK-MEL-2 melanoma = test system: SK-MEL-2 melanoma
SK-MEL-28 melanoma = test system: SK-MEL-28 melanoma
SK-MEL-5 melanoma = test system: SK-MEL-5 melanoma
SK-OV-3 ovarian = test system: SK-OV-3 ovarian
SN12C renal = test system: SN12C renal
SNB-19 CNS = test system: SNB-19 CNS
SNB-75 CNS = test system: SNB-75 CNS
SR leukemia = test system: SR leukemia
SW-620 colon = test system: SW-620 colon
T-47D breast = test system: T-47D breast
TK-10 renal = test system: TK-10 renal
U251 CNS = test system: U251 CNS
UACC-257 melanoma = test system: UACC-257 melanoma
UACC-62 melanoma = test system: UACC-62 melanoma
UO-31 renal = test system: UO-31 renal

`CC(C)[C@H](NC(=O)[C@H](C(C)C)N(Cc1ccccc1)Cc1ccccc1)C(=O)N(C)[C@H](C(=O)N1CCC[C@H]1C(=O)N(C)[C@H](C)C(=O)NCc1ccc(F)cc1)C(C)C` (Bn2Val-V[NMeV]P[dNMeA]-{NH(4-F-benzyl)}) showed a TGI (786-0 renal) of 36.8 µM, a TGI (A498 renal) of 6.71 µM and a TGI (A549 NSCLC) of over 25.2 µM. It also gave a TGI (ACHN renal) of 20.6 µM, a TGI (BT-549 breast) of 19.1 µM and a TGI (CAKI-1 renal) of over 63.1 µM. The TGI (CCRF-CEM leukemia) was over 100 µM, the TGI (COLO 205 colon) was 3.28 µM and the TGI (DU-145 prostate) was over 100 µM. The TGI (EKVX NSCLC) was 18.4 µM, the TGI (HCC-2998 colon) was 12.8 µM and the TGI (HCT-116 colon) was 8.82 µM. For the same compound, the TGI (HCT-15 colon) was over 80.9 µM, the TGI (HL-60(TB) leukemia) was 5.52 µM and the TGI (HOP-62 NSCLC) was 39.4 µM. For the same compound, the TGI (HOP-92 NSCLC) was 10.3 µM, the TGI (HS 578T breast) was 24.7 µM and the TGI (HT29 colon) was 4.18 µM. The TGI (IGROV1 ovarian) was 9.7 µM, the TGI (K-562 leukemia) was over 100 µM and the TGI (KM12 colon) was over 100 µM. The TGI (LOX IMVI melanoma) was 3.52 µM, the TGI (M14 melanoma) was over 20.3 µM and the TGI (MALME-3M melanoma) was 9.23 µM. For the same compound, the TGI (MCF7 breast) was 7.32 µM, the TGI (MDA-MB-231 breast) was 11.2 µM and the TGI (MDA-MB-435) was over 31.9 µM. For the same compound, the TGI (MDA-N) was 27.9 µM, the TGI (MOLT-4 leukemia) was over 20.8 µM and the TGI (NCI-H226 lung) was 6.23 µM. It also gave a TGI (NCI-H23 lung) of 32.5 µM, a TGI (NCI-H460 lung) of over 38.7 µM and a TGI (NCI-H522 lung) of 7.61 µM. The TGI (NCI/ADR-RES ovarian) was over 100 µM, the TGI (OVCAR-3 ovarian) was 9.92 µM and the TGI (OVCAR-4 ovarian) was over 47.4 µM. It also gave a TGI (OVCAR-5 ovarian) of 15.4 µM, a TGI (OVCAR-8 ovarian) of over 51.5 µM and a TGI (PC-3 prostate) of over 25.6 µM. For the same compound, the TGI (RPMI-8226 leukemia) was over 100 µM, the TGI (RXF 393 renal) was 7.9 µM and the TGI (SF-268 CNS) was 10 µM. It also gave a TGI (SF-295 CNS) of 13.6 µM, a TGI (SF-539 CNS) of 7.99 µM and a TGI (SK-MEL-2 melanoma) of 4.03 µM. For the same compound, the TGI (SK-MEL-28 melanoma) was over 61.7 µM, the TGI (SK-MEL-5 melanoma) was 4.7 µM and the TGI (SK-OV-3 ovarian) was over 100 µM. For the same compound, the TGI (SN12C renal) was 8.76 µM, the TGI (SNB-19 CNS) was over 65.6 µM and the TGI (SNB-75 CNS) was over 37.5 µM. It also gave a TGI (SR leukemia) of 4.65 µM, a TGI (SW-620 colon) of over 100 µM and a TGI (T-47D breast) of over 83.9 µM. The TGI (TK-10 renal) was over 61.2 µM, the TGI (U251 CNS) was over 25.6 µM and the TGI (UACC-257 melanoma) was over 47.4 µM. The TGI (UACC-62 melanoma) was 9.66 µM and the TGI (UO-31 renal) was 6.42 µM.

With `CC(=O)NCCC1CN(C(=O)/C=C\I)c2ccccc21` (stereo not drawn) the TGI (786-0 renal) was 24.7 µM, the TGI (A498 renal) was 41.7 µM and the TGI (A549 NSCLC) was 31.4 µM. It also gave a TGI (ACHN renal) of 28.5 µM, a TGI (BT-549 breast) of 38.2 µM and a TGI (CAKI-1 renal) of 3.32 µM. It also gave a TGI (CCRF-CEM leukemia) of 13.3 µM, a TGI (COLO 205 colon) of 23.9 µM and a TGI (DU-145 prostate) of 33.1 µM. The TGI (EKVX NSCLC) was 34 µM, the TGI (HCC-2998 colon) was 28.5 µM and the TGI (HCT-116 colon) was 28.8 µM. For the same compound, the TGI (HCT-15 colon) was 22.1 µM, the TGI (HL-60(TB) leukemia) was 8.49 µM and the TGI (HOP-62 NSCLC) was 23.3 µM. The TGI (HOP-92 NSCLC) was 46.3 µM, the TGI (HS 578T breast) was 67.6 µM and the TGI (HT29 colon) was 24 µM. For the same compound, the TGI (IGROV1 ovarian) was 28.4 µM, the TGI (K-562 leukemia) was over 40.3 µM and the TGI (KM12 colon) was 18.7 µM. It also gave a TGI (LOX IMVI melanoma) of 11.1 µM, a TGI (M14 melanoma) of 24 µM and a TGI (MALME-3M melanoma) of 28.5 µM. For the same compound, the TGI (MCF7 breast) was 13.4 µM, the TGI (MDA-MB-231 breast) was 8.14 µM and the TGI (MDA-MB-435) was 30.8 µM. For the same compound, the TGI (MDA-N) was 26.3 µM, the TGI (MOLT-4 leukemia) was 13.7 µM and the TGI (NCI-H226 lung) was 27.6 µM. The TGI (NCI-H23 lung) was 35.2 µM, the TGI (NCI-H460 lung) was 22.3 µM and the TGI (NCI-H522 lung) was 3.29 µM. For the same compound, the TGI (NCI/ADR-RES ovarian) was over 61.7 µM, the TGI (OVCAR-3 ovarian) was 28.2 µM and the TGI (OVCAR-4 ovarian) was 39 µM. The TGI (OVCAR-5 ovarian) was 30.2 µM, the TGI (OVCAR-8 ovarian) was 35.8 µM and the TGI (PC-3 prostate) was 24 µM. The TGI (RPMI-8226 leukemia) was 9.5 µM, the TGI (RXF 393 renal) was 26.3 µM and the TGI (SF-268 CNS) was 31.6 µM. For the same compound, the TGI (SF-295 CNS) was 31.5 µM, the TGI (SF-539 CNS) was 17.8 µM and the TGI (SK-MEL-2 melanoma) was 29.7 µM. For the same compound, the TGI (SK-MEL-28 melanoma) was 31.6 µM, the TGI (SK-MEL-5 melanoma) was 16 µM and the TGI (SK-OV-3 ovarian) was 34.9 µM. The TGI (SN12C renal) was 13.1 µM, the TGI (SNB-19 CNS) was 46.9 µM and the TGI (SNB-75 CNS) was 33 µM. It also gave a TGI (SR leukemia) of over 65.9 µM, a TGI (SW-620 colon) of 38.6 µM and a TGI (T-47D breast) of 37.6 µM. It also gave a TGI (TK-10 renal) of 19.5 µM, a TGI (U251 CNS) of 25.9 µM and a TGI (UACC-257 melanoma) of 26.7 µM. The TGI (UACC-62 melanoma) was 28.3 µM and the TGI (UO-31 renal) was 18.8 µM.
